# Measurements reported in ChEMBL document CHEMBL3407331, “Discovery of AM-7209, a potent and selective 4-amidobenzoic acid inhibitor of the MDM2-p53 interaction” (J Med Chem, 2014).
# Activity calls are given as the source filed them. The calls are words filed in the database; no cut-off is given here.
# Legend:
# [1] = target: T1, CYP3A4 (Homo sapiens, UniProt P08684); assay: Inhibition of CYP3A4 (unknown origin) at 3 uM; format: ADME
# [2] = target: T1, CYP3A4; assay: Time-dependent inhibition of CYP3A4 (unknown origin) assessed as remaining activity at 10 uM after 30 mins; format: ADME; conditions: read-out: Activity
# [3] = target: T2, PXR (NR1I2) (Homo sapiens, UniProt O75469); assay: Activation of human PXR at 2 uM relative to control; format: ADME; conditions: read-out: Activity
# T2 sequence (O75469 whole entry): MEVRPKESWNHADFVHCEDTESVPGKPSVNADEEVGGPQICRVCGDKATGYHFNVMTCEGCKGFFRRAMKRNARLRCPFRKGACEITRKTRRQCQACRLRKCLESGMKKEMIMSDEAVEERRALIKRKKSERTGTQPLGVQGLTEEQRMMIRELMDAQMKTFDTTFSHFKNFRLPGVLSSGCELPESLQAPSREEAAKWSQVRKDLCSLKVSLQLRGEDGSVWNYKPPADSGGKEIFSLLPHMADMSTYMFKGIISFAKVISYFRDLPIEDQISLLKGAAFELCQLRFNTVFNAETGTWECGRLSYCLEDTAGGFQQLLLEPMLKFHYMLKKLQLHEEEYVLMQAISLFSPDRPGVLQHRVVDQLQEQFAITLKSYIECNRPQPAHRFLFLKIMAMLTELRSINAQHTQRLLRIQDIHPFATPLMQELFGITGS
# [4] = system: SJSA-1; assay: cells; conditions: Homo sapiens, SJSA-1, 16 h
# [5] = target: T3, E3 ubiquitin-protein ligase Mdm2 (Homo sapiens, UniProt Q00987)
# T3 sequence (Q00987 whole entry): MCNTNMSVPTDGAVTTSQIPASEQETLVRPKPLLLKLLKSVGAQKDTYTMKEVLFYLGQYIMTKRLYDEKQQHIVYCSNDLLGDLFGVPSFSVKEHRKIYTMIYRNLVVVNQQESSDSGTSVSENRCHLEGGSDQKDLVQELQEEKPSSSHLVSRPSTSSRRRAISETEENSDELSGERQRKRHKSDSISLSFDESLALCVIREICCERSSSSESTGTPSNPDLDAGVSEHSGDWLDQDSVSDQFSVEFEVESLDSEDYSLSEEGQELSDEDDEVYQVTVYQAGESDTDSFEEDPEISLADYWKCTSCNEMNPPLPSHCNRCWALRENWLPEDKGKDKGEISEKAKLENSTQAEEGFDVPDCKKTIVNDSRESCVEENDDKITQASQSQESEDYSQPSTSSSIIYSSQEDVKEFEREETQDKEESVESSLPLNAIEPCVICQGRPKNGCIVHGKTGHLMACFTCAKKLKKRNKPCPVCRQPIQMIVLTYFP
# [6] = system: Hepatocyte; assay: cells; conditions: Homo sapiens
# [7] = target: T3, E3 ubiquitin-protein ligase Mdm2; remark: listed apart in the source
# [8] = Drug metabolism in human hepatocytes treated with 4-(2-((3R,5R,6S)-1-((S)-2-(tert-Butylsulfonyl)-1-cyclopropylethyl)-6-(4-chloro-3-fluorophenyl)-5-(3-chlorophenyl)-3-methyl-2-oxopiperidin-3-yl)acetamido)-2-methoxybenzoic acid at 10 uM after 2 hrs by LC/MS analysis; format: ADME, cell-based, Hepatocyte
# [9] = Drug metabolism in dog hepatocytes treated with AMG 232 at 10 uM after 2 hrs by LC/MS analysis; format: ADME, cell-based, Canis lupus familiaris, Hepatocyte
# [10] = Drug metabolism in cynomolgus monkey hepatocytes treated with AMG 232 at 10 uM after 2 hrs by LC/MS analysis; format: ADME, cell-based, Macaca fascicularis, Hepatocyte
# [11] = Drug metabolism in rat hepatocytes treated with 4-(2-((3R,5R,6S)-1-((S)-2-(tert-Butylsulfonyl)-1-cyclopropylethyl)-6-(4-chloro-3-fluorophenyl)-5-(3-chlorophenyl)-3-methyl-2-oxopiperidin-3-yl)acetamido)-2-methoxybenzoic acid at 10 uM after 2 hrs by LC/MS analysis; format: ADME, cell-based, Hepatocyte
# [12] = Drug metabolism in cynomolgus monkey hepatocytes treated with 4-(2-((3R,5R,6S)-1-((S)-2-(tert-Butylsulfonyl)-1-cyclopropylethyl)-6-(4-chloro-3-fluorophenyl)-5-(3-chlorophenyl)-3-methyl-2-oxopiperidin-3-yl)acetamido)-2-methoxybenzoic acid at 10 uM after 2 hrs by LC/MS analysis; format: ADME, cell-based, Macaca fascicularis, Hepatocyte
# [13] = Drug metabolism in dog hepatocytes treated with 4-(2-((3R,5R,6S)-1-((S)-2-(tert-Butylsulfonyl)-1-cyclopropylethyl)-6-(4-chloro-3-fluorophenyl)-5-(3-chlorophenyl)-3-methyl-2-oxopiperidin-3-yl)acetamido)-2-methoxybenzoic acid at 10 uM after 2 hrs by LC/MS analysis; format: ADME, cell-based, Canis lupus familiaris, Hepatocyte
# [14] = Drug metabolism in rat hepatocytes treated with AMG 232 at 10 uM after 2 hrs by LC/MS analysis; format: ADME, cell-based, Hepatocyte
# [15] = Drug metabolism in human hepatocytes treated with AMG 232 at 10 uM after 2 hrs by LC/MS analysis; format: ADME, cell-based, Hepatocyte
# [16] = Drug metabolism in human hepatocytes assessed as demethylated metabolite M3 formation at 10 uM after 2 hrs by LC/MS analysis; format: ADME, cell-based, Hepatocyte
# [17] = Drug metabolism in rat hepatocytes assessed as oxidative metabolite M2 formation at 10 uM after 2 hrs by LC/MS analysis; format: ADME, cell-based, Hepatocyte
# [18] = Oral bioavailability in dog; format: ADME, organism-based, Canis lupus familiaris; conditions: in vivo
# [19] = Drug metabolism in dog hepatocytes assessed as demethylated metabolite M3 formation at 10 uM after 2 hrs by LC/MS analysis; format: ADME, cell-based, Canis lupus familiaris, Hepatocyte
# [20] = target: T3, E3 ubiquitin-protein ligase Mdm2; remark: listed apart in the source
# [21] = Clearance in iv dosed mouse; format: ADME, organism-based; conditions: in vivo
# [22] = Drug metabolism in human hepatocytes assessed as oxidative metabolite M2 formation at 10 uM after 2 hrs by LC/MS analysis; format: ADME, cell-based, Hepatocyte
# [23] = Drug metabolism in dog hepatocytes assessed as oxidative metabolite M2 formation at 10 uM after 2 hrs by LC/MS analysis; format: ADME, cell-based, Canis lupus familiaris, Hepatocyte
# [24] = Oral bioavailability in mouse; format: ADME, organism-based; conditions: in vivo
# [25] = Drug metabolism in cynomolgus monkey hepatocytes assessed as oxidative metabolite M2 formation at 10 uM after 2 hrs by LC/MS analysis; format: ADME, cell-based, Macaca fascicularis, Hepatocyte
# [26] = Antiproliferative activity p53 -deficient human HCT116 cells after 16 hrs by BrdU proliferation assay; format: functional, cell-based; conditions: HCT-116, 16 h
# [27] = system: SJSA-1; assay: Antitumor activity against human SJSA1 cells xenografted in athymic nude mouse assessed as complete tumor regression at 25 to 50 mg/kg, po qd for 4 days measured after 30 days; format: functional, organism-based
# [28] = Drug metabolism in cynomolgus monkey hepatocytes assessed as demethylated metabolite M3 formation at 10 uM after 2 hrs by LC/MS analysis; format: ADME, cell-based, Macaca fascicularis, Hepatocyte
# [29] = Antiproliferative activity against human HCT116 cells expressing p53 wild type after 16 hrs by BrdU proliferation assay; format: functional, cell-based; conditions: HCT-116, 16 h
# [30] = Antitumor activity against human HCT116 cells xenografted in athymic nude mouse assessed as tumor growth inhibition at 100 mg/kg, po qd starting on day 10 of tumor implantation; format: functional; conditions: HCT-116, 240 h, read-out: TGI
# [31] = animal or person; conditions: Homo sapiens, HCT-116, po, 240 h
# [32] = target: T3, E3 ubiquitin-protein ligase Mdm2; assay: Binding affinity to human MDM2 by isothermal titration calorimetry
# [33] = system: Mus musculus; assay: Toxicity in human SJSA1 cells xenografted athymic nude mouse assessed as body weight loss at 10 to 50 mg/kg, po qd for 4 days; format: organism-based, SJSA-1; set-up: dose 10-50 mg/kg, route oral; conditions: in vivo, 96 h
# [34] = Clearance in iv dosed dog; format: ADME, organism-based, Canis lupus familiaris; conditions: in vivo
# [35] = Drug metabolism in rat hepatocytes assessed as demethylated metabolite M3 formation at 10 uM after 2 hrs by LC/MS analysis; format: ADME, cell-based, Hepatocyte
# T1 sequence (P08684 whole entry): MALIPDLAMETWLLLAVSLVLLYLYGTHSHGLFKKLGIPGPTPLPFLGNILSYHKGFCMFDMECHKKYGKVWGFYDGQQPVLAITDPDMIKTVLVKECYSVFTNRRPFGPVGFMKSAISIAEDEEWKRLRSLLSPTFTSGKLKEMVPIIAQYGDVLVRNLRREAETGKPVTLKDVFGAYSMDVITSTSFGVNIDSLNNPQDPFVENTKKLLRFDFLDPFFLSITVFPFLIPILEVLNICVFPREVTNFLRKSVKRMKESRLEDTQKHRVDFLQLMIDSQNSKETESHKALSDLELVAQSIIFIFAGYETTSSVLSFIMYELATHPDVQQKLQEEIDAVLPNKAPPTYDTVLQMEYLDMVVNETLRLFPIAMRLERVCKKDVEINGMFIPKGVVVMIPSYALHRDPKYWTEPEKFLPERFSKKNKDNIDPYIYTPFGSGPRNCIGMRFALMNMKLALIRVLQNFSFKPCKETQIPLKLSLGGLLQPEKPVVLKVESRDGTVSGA
compound,measurement,setting,value
COc1cc(NC(=O)C[C@@]2(C)C[C@H](c3cccc(Cl)c3F)[C@@H](c3ccc(Cl)cc3)N([C@H](CS(=O)(=O)C(C)(C)C)C3CC3)C2=O)ccc1C(=O)O,inhibition at 3 µM,[1],14%
same,"activity at 0.5 h, 10 µM",[2],72%
same,activity at 2 µM,[3],0%
CC(C)(C)S(=O)(=O)C[C@H](C1CC1)N1C(=O)[C@@](C)(CC(=O)N[C@H]2CC[C@H](C(=O)O)CC2)C[C@H](c2cccc(Cl)c2)[C@H]1c1ccc(Cl)cc1,IC50,[4],7.5 nM
CC(C)(C)S(=O)(=O)C[C@H](C1CC1)N1C(=O)[C@@](C)(CC(=O)Nc2ccc(CC(=O)O)cc2)C[C@H](c2cccc(Cl)c2)[C@H]1c1ccc(Cl)cc1,IC50,[4],2.7 nM
CC(C)(C)S(=O)(=O)C[C@H](C1CC1)N1C(=O)[C@@](C)(CC(=O)N[C@H]2C[C@H](C(=O)O)C2)C[C@H](c2cccc(Cl)c2)[C@H]1c1ccc(Cl)cc1,IC50,[4],13.5 nM
CC(C)(C)S(=O)(=O)C[C@H](C1CC1)N1C(=O)[C@@](C)(CC(=O)NC23CCC(C(=O)O)(CC2)CC3)C[C@H](c2cccc(Cl)c2)[C@H]1c1ccc(Cl)cc1,inhibition at 3 µM,[1],< 10%
same,"activity at 0.5 h, 10 µM",[2],75%
same,IC50,[4],5.9 nM
same,activity at 2 µM,[3],0%
CC(C)(C)S(=O)(=O)C[C@H](C1CC1)N1C(=O)[C@@](C)(CC(=O)Nc2ccccc2C(=O)O)C[C@H](c2cccc(Cl)c2)[C@H]1c1ccc(Cl)cc1,IC50,[4],45 nM
CC(C)(C)S(=O)(=O)C[C@H](C1CC1)N1C(=O)[C@@](C)(CC(=O)N2CCC(C(=O)O)CC2)C[C@H](c2cccc(Cl)c2)[C@H]1c1ccc(Cl)cc1,IC50,[4],11.7 nM
COc1cc(NC(=O)C[C@@]2(C)C[C@H](c3cccc(Cl)c3)[C@@H](c3ccc(Cl)cc3)N([C@H](CS(=O)(=O)C(C)(C)C)C3CC3)C2=O)ccc1C(=O)O,inhibition at 3 µM,[1],14%
same,"activity at 0.5 h, 10 µM",[2],85%
same,IC50,[4],1.9 nM
same,activity at 2 µM,[3],14%
CC(C)(C)S(=O)(=O)C[C@H](C1CC1)N1C(=O)[C@@](C)(CC(=O)N2CC(C(=O)O)C2)C[C@H](c2cccc(Cl)c2)[C@H]1c1ccc(Cl)cc1,IC50,[4],46 nM
CC(C)(C)S(=O)(=O)C[C@H](C1CC1)N1C(=O)[C@@](C)(CC(=O)Nc2ccc(C#N)cc2)C[C@H](c2cccc(Cl)c2)[C@H]1c1ccc(Cl)cc1,IC50,[4],138 nM
CC1(C(=O)O)CCN(C(=O)C[C@@]2(C)C[C@H](c3cccc(Cl)c3)[C@@H](c3ccc(Cl)cc3)N([C@H](CS(=O)(=O)C(C)(C)C)C3CC3)C2=O)CC1,IC50,[4],6.8 nM
COc1cc(C(=O)O)ccc1NC(=O)C[C@@]1(C)C[C@H](c2cccc(Cl)c2)[C@@H](c2ccc(Cl)cc2)N([C@H](CS(=O)(=O)C(C)(C)C)C2CC2)C1=O,IC50,[4],6.9 nM
CN(C(=O)C[C@@]1(C)C[C@H](c2cccc(Cl)c2)[C@@H](c2ccc(Cl)cc2)N([C@H](CS(=O)(=O)C(C)(C)C)C2CC2)C1=O)c1ccc(C(=O)O)cc1,IC50,[4],198 nM
CC(C)(C)S(=O)(=O)C[C@H](C1CC1)N1C(=O)[C@@](C)(CC(=O)O)C[C@H](c2cccc(Cl)c2F)[C@H]1c1ccc(Cl)cc1,IC50,[5],6.4 nM
same,CLint,[6],27 µL/min/10⁶ cells
same,IC50,[7],< 0.1 nM
same,IC50,[4],0.8 nM
COc1cc(NC(=O)C[C@@]2(C)C[C@H](c3cccc(Cl)c3)[C@@H](c3ccc(Cl)cc3)N([C@H](CS(=O)(=O)C(C)(C)C)C3CC3)C2=O)ccc1C(N)=O,IC50,[4],15 nM
CC(C)(C)S(=O)(=O)C[C@H](C1CC1)N1C(=O)[C@@](C)(CC(=O)Nc2ccc(C(=O)O)cc2)C[C@H](c2cccc(Cl)c2)[C@H]1c1ccc(Cl)cc1,inhibition at 3 µM,[1],< 10%
same,"activity at 0.5 h, 10 µM",[2],78%
same,IC50,[4],2.9 nM
same,activity at 2 µM,[3],0%
CC(C)(C)S(=O)(=O)C[C@H](C1CC1)N1C(=O)[C@@](C)(CC(=O)Nc2cccc(C(=O)O)c2)C[C@H](c2cccc(Cl)c2)[C@H]1c1ccc(Cl)cc1,IC50,[4],9.7 nM
CC(C)(C)S(=O)(=O)C[C@H](C1CC1)N1C(=O)[C@@](C)(CC(=O)N[C@H]2CC[C@@H](C(=O)O)CC2)C[C@H](c2cccc(Cl)c2)[C@H]1c1ccc(Cl)cc1,IC50,[4],17 nM
CC(C)(C)S(=O)(=O)C[C@H](C1CC1)N1C(=O)[C@@](C)(CC(=O)Nc2ccc(C(=O)O)cn2)C[C@H](c2cccc(Cl)c2)[C@H]1c1ccc(Cl)cc1,IC50,[4],9 nM
CC(C)(C)S(=O)(=O)C[C@H](C1CC1)N1C(=O)[C@@](C)(CC(=O)O)C[C@H](c2cccc(Cl)c2)[C@H]1c1ccc(Cl)c(F)c1,CLint,[6],26 µL/min/10⁶ cells
CC(C)[C@@H](CS(=O)(=O)C(C)C)N1C(=O)[C@@](C)(CC(=O)OC2O[C@H](C(=O)O)[C@@H](O)[C@H](O)[C@H]2O)C[C@H](c2cccc(Cl)c2)[C@H]1c1ccc(Cl)cc1 (stereo partly specified),Drug metabolism,[8],metabolite_detected
same,Drug metabolism,[9],metabolite_detected
same,Drug metabolism,[10],metabolite_detected
same,Drug metabolism,[11],metabolite_detected
same,Drug metabolism,[12],metabolite_detected
same,Drug metabolism,[13],metabolite_detected
same,Drug metabolism,[14],metabolite_detected
same,Drug metabolism,[15],metabolite_detected
COc1cc(NC(=O)C[C@@]2(C)C[C@H](c3cccc(Cl)c3)[C@@H](c3ccc(Cl)c(F)c3)N([C@H](CS(=O)(=O)C(C)(C)C)C3CC3)C2=O)ccc1C(=O)O,Drug metabolism,[16],metabolite_detected
same,Drug metabolism,[17],metabolite_detected
same,bioavailability,[18],45%
same,Drug metabolism,[19],metabolite_detected
same,IC50,[20],0.6 nM
same,clearance,[21],0.026 L/h/kg
same,Drug metabolism,[22],metabolite_detected
same,Drug metabolism,[23],metabolite_detected
same,bioavailability,[24],30%
same,Drug metabolism,[25],metabolite_detected
same,IC50,[26],> 25000 nM
same,Activity,[27],Active
same,Drug metabolism,[28],metabolite_detected
same,IC50,[29],2 nM
same,inhibition at 3 µM,[1],< 10%
same,inhibition in vivo at 100 mg/kg,[30],100%
same,ED50,[31],10 mg/kg
same,Kd,[32],0.038 nM
same,"activity at 0.5 h, 10 µM",[2],63%
same,Activity,[33],<= 5%
same,clearance,[34],0.69 L/h/kg
same,Drug metabolism,[35],metabolite_detected
same,activity at 2 µM,[3],0%
CC(C)(C)S(=O)(=O)C[C@H](C1CC1)N1C(=O)[C@@](C)(CC(=O)N[C@H]2C[C@@H](C(=O)O)C2)C[C@H](c2cccc(Cl)c2)[C@H]1c1ccc(Cl)cc1,IC50,[4],22 nM
